Data from US20190136302A1, “METHODS FOR DETECTING OLIGONUCLEOTIDES IN A SAMPLE” (THE REGENTS OF THE UNIVERSITY OF CALIFORNIA, priority 2016, published 2019).

Tests used:
Capture PRLR SMO oligo = experiment: ELOSA competition with PRLR SMO capture oligonucleotide and HRP-PRLR SMO; assay type: binding, mouse; details: for hybridization to Capture PRLR SMO / displacement of HRP-PRLR SMO (absorbance): PRLR SMO capture oligonucleotide at increasing concentrations, mouse sequences
Description: (§1) The capture reagent was synthesized using a sequence antisense to the test oligonucleotide, along with an amino-terminus and a 12 carbon aliphatic spacer. The amino-terminus allows binding to the wells of a 96-well, polystyrene DNA-binding plate and the spacer minimizes steric hindrance during hybridization of the test oligonucleotides. The capture reagent (2 picomoles/well) was incubated in 100 μl 0.05M phosphate (pH 8.5) —1 mM EDTA at 4° C. for 24 h or longer.
(§2) After washing (3 times with 0.05M TrisHCl (pH 8)—1 mM EDTA), the plate was blocked to reduce non-specific binding (200 μl 3% bovine serum albumin—0.05M TrisHCl (pH 8)—1 mM EDTA at 37° C. for 4 h).
(§3) After washing 3 times, the test oligo and a constant concentration of horseradish peroxidase-labeled oligonucleotide (i.e., the competition oligonucleotide with a sequence the same as test oligo) was incubated with the capture reagent. The amount of competition oligonucleotide hybridized to the capture reagent is inversely proportional to the total amount of test oligonucleotide present. Incubations were in a total final volume of 100 μl in 0.05M TrisHCl (pH 7.5)—1 mM EDTA, with Test oligo (variable doses up to 1 pmole), constant HRP-Oligo (0.5-1 pmole), and a total serum volume of 10 to 25 μl. Incubations were at 37° C. for 15 h.
(§4) After washing 3 times with TBST, the competition oligonucleotide bound to the capture reagent was measured using 100 μl 0.1 mg/ml TMB—1% hydrogen peroxide. After color development, the reaction was stopped with 50 μl 1N H2SO4, and the amount of colored product was measured spectrophotometrically at A450.
For clarity, the PRLR SMO vivo-morpholino is referred to as Antimaia to distinguish it from the oligonucleotides being used for competition or capture, which are called HRP-PRLR SMO and capture PRLR SMO, respectively. […] The methods used for these experiments are described in Example 1.

[1] = test system: Capture Control SMO oligo; experiment: ELOSA competition with Control SMO capture oligonucleotide and HRP-Control SMO; assay type: binding; details: test oligo 5 pmoles; HRP-Control SMO 1 pmole; Capture Control SMO 5 pmoles
Description: as §1, with “The capture reagent (2 picomoles/well) was incubated in 100 μl 0.05M phosphate (pH 8.5) —1 mM EDTA at 4° C. for 24 h or longer.” left out
as §2
as §3, with “Incubations were in a total final volume of 100 μl in 0.05M TrisHCl (pH 7.5)—1 mM EDTA, with Test oligo (variable doses up to 1 pmole), constant HRP-Oligo (0.5-1 pmole), and a total serum volume of 10 to 25 μl.” left out
as §4, with “A450. […]” for “A450.”

[2] = test system: prolactin receptor (PRLR); details: treatment with PRLR SMO; cited from earlier work
[3] = test system: orthotopic models of breast cancer; details: cited from earlier work

Row | Substance | hybridization to Capture PRLR SMO / displacement of HRP-PRLR SMO (absorbance) (Capture PRLR SMO oligo) | competition with HRP-Control SMO for binding to the Capture Control SMO [1] | sensitivity of the assay (Capture PRLR SMO oligo; Capture PRLR SMO 2 pmoles, HRP-PRLR-SMO 0.5 pmole, presence of serum) | competition easily detected above (Capture PRLR SMO oligo; capture reagent 2 pmoles, HRP-PRLR SMO in the 0.5 pmole range, presence of serum) | effect on PRLR splice forms [2] | tolerability ([3]; in vivo) | reduction in metastatic spread ([3]; two orthotopic models of breast cancer)
1 | 5′-AAAAAAGACGAGATTCGATCGGAGTAAAA-3′ (SEQ ID NO: 1) (all phosphorodiamidate morpholino (PMO); vivo-morpholino: octaguanidine derivatization attached, position not given here) [Control SMO, reference compound] | did not hybridize | competed |  |  |  |  | 
2 | 5′-AAAAAGCCCTTCTATTGAAACACAGATACAAAA-3′ (SEQ ID NO: 4) (all phosphorodiamidate morpholino (PMO); vivo-morpholino: octaguanidine derivatization attached, position not given here; listed as Mus sp.) [Antimaia, vivo-morpholino splice-modulating oligomer for the prolactin receptor, phosphorodiamidate morpholino backbone and octaguanidine derivatizations] | displaced HRP-PRLR SMO | essentially no effect | 0.25 pmol | above 0.2 pmoles | loss of the growth-promoting PRLR without loss of the growth-inhibiting splice form of the PRLR | well-tolerated | 80%
